Data: publication PMC7686103 (Bioorganic & medicinal chemistry letters, 2020)

Tests used:
hCB2 receptors = hCB2 receptors (Homo sapiens, UniProt P34972); assay: [35S]GTPγS binding, modulation of G-protein activity in CHO-hCB2 cell membranes; type: biochemical; settings: 10 μM
hCB1 receptors = hCB1 receptors (Homo sapiens, UniProt P21554); assay: [35S]GTPγS binding, modulation of G-protein activity in CHO-hCB1 cell membranes; type: biochemical; settings: 10 μM
Sequence of hCB1 receptors (P21554 whole entry): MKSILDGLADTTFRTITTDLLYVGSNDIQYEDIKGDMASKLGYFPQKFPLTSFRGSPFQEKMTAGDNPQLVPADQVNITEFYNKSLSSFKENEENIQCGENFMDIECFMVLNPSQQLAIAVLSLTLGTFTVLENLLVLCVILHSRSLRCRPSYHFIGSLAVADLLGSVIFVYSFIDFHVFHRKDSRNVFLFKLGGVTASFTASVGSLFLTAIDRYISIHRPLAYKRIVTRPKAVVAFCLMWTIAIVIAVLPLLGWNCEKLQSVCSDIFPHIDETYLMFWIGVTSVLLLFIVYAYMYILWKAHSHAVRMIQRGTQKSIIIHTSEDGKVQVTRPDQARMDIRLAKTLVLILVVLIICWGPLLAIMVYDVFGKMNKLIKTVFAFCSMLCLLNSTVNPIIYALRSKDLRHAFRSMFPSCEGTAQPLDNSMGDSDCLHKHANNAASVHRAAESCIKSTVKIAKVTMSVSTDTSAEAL

Sequence of hCB2 receptors (P34972 whole entry): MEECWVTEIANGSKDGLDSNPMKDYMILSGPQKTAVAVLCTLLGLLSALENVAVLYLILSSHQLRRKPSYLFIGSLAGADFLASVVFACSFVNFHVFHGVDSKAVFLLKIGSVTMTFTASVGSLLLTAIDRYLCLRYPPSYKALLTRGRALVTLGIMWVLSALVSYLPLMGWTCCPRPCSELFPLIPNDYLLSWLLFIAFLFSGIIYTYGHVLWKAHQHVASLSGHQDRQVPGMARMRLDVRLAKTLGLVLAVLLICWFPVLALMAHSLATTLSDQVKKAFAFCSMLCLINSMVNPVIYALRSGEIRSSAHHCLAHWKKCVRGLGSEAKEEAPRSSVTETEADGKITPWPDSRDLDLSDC

Row | Compound | Intrinsic activity at hCB2 receptors (modulation of [35S]GTPγS binding) (hCB2 receptors) | Intrinsic activity at hCB1 receptors (modulation of [35S]GTPγS binding) (hCB1 receptors)
1 | COc1ccc(C(=O)c2c(C)n(CCN3CCOCC3)c3cc(I)ccc23)cc1 [AM-630, reference compound] | inverse agonist activity | –
2 | O=C1/C(=C/c2cn(Cc3ccccc3)c3ncccc23)N2CCC1CC2 [Compound 8a] | neutral antagonist | neutral antagonist
3 | O=C1/C(=C/c2cn(Cc3ccc(Cl)cc3)c3ncccc23)N2CCC1CC2 [Compound 8b] | inverse agonist activity | inverse agonist activity
4 | O=C1/C(=C/c2cn(Cc3ccc(Br)cc3)c3ncccc23)N2CCC1CC2 [Compound 8f] | neutral antagonist | inverse agonist
5 | O=C1/C(=C/c2cn(Cc3ccc(F)cc3)c3ncccc23)N2CCC1CC2 [Compound 8g] | partial agonist | neutral antagonist
